Reference: US12350308B2, “Phosphorylcholine conjugates and uses thereof” (TPCERA LTD., priority 2013, dated 2025)
Where no end group is shown, it is not given here.

Columns and labels:
[1] = test system: Tregs CD4+CD25+FOXP3+; assay: T regulatory cell profiling by FACS in splenocytes of lupus mice (PC-tuftsin study); format: in vivo; settings: PBS 4±0.6 percent
Experimental: Mice, from age of 14 weeks, received subcutaneously PC-tuftsin at the concentration of 50 μg/0.1 ml per mouse (treatment; n=10) or PBS (control; n=10), three times a week. In the cytokines studies, the relative mRNA expression levels of pro-inflammatory cytokine IFNγ and anti-inflammatory cytokine TGFβ were analyzed by real time RT-PCR using LightCycler (Roche). Total RNA was isolated from splenocytes and was reverse-transcribed into cDNA by using Moloney Murine Leukemia Virus Reverse Transcriptase (Promega). The resulting cDNA was subjected to real-time RT-PCR in the presence of specific primers, according to the manufacturer's instructions (Table 2). The relative expression levels of IFNγ and TGFβ were normalized to β-actin levels.
Finally, a T regulatory cell (Tregs) profiling assay was performed in isolated splenocytes incubated with the following antibodies: anti-CD4^+FITC, anti-CD25^+APC and anti-FOXP3^+PE (eBioscience) and analyzed by FACS. Forward and side scatter gates adjusted to include all cells and to exclude debris (Becton Dickinson). Cells were gated on CD4+ cells, and for intracellular staining, the cells were incubated with a fixation solution, washed and resuspended in permeabilization solution (Serotec). Isotype control was used as reference.

[2] = test system: IL-10+CD25+CD1d+ Breg cells; assay: Breg expansion in splenocytes of mice with established CIA (FACS); format: in vivo; settings: isolated splenocytes; PBS 0.4%
Experimental: The mean percentage of Breg cells in isolated splenocytes following treatment with TD-PC, PBS, TD (SEQ ID NO: 25), PC, TD+PC and None was measured within IL-10+CD25+CD1d+ subset. […] Representative data of IL-10+CD25+CD1d+ levels in splenocytes derived from TD-PC, PBS, TD (SEQ ID NO: 25), PC and TD+PC treated mice gating on IL-10+ B cells, are presented in FIG. 34A.

[3] = test system: DBA/1 CIA mice; assay: Arthritis score in mice with established CIA (treatment from day 16); format: in vivo; settings: for mean arthritis score: day 35, s.c. 3 times a week, PBS 13.8±0.45; for average arthritis score: time 0 (treatment initiation, day 16 after disease induction), baseline
Excerpt: Rheumatoid Arthritis is a progressive joint deformation disease caused by severe inflammation. CIA mice were subjected to subcutaneous injections of TD-PC, tuftsin derivative (SEQ ID NO: 25), PC, a mix of TD and PC, or PBS, 3 times a week. […] Treatment started as day 16 after disease induction when disease symptoms were already notable. […] The significant reduction in arthritis score was illustrious from day 7 after treatment administration and lasted until day 35 (the day mice were sacrificed).

[4] = test system: CD4+CD25+FOXP3+ Treg cells; assay: Treg expansion in splenocytes of mice with established CIA (FACS); format: in vivo; settings: isolated splenocytes; PBS 1.4%
Excerpt: The frequency of CD4+CD25+FOXP3+ Treg cells subset in isolated splenocytes from mice treated with TPC, PBS, TD (SEQ ID NO: 25), PC, TD+PC or untreated is elucidated in FIGS. 33A and 33B. […] Representative data of the CD4+CD25+FOXP3+ levels in splenocytes derived from TD-PC, PBS, TD (SEQ ID NO: 25), PC and TD+PC treated mice and the untreated group, gating on CD4+ T cells are presented in FIG. 33B.

[5] = test system: splenocytes of NZBW/F1 female mice; assay: Cytokine secretion in-vitro by splenocytes of lupus mice treated with TD-PC; format: in vivo; settings: vs PBS; for IL-17 secretion from splenocytes: in vitro; for IL-10 secretion by splenocytes / TGFβ production by splenocytes / reduction of splenocyte secretion of IFNγ: in-vitro
Experimental: NZBW/F1 female mice having lupus were treated with TD-PC (SEQ ID NO: 25 conjugated to PC) or the corresponding control treatments. Mice were sacrificed at week 30, and their splenocytes were studied in-vitro for the expression of pro-inflammatory cytokines (IFNγ, IL-17) and anti-inflammatory (TGFβ, IL-10) cytokines using RT-PCR. […] In contrast, TD-PC increased the mRNA expression of the anti-inflammatory cytokine TGFβ in the (p<0.001) compared to the mRNA expressed by splenocytes derived from PBS-treated mice (FIG. 24A).
However, a prominent increase in anti-inflammatory cytokines (TGFβ, IL-10) secretion in-vitro by splenocytes derived from TD-PC treated mice is illustrated in FIG. 24B. […] IFNγ secretion upon tuftsin derivative (SEQ ID NO: 25) or PC treatments was reduced by 2.5 and 1.5 times respectively (p<0.03 and p<0.04, respectively).

[6] = test system: female NZBxW/F1 lupus prone mice; assay: Proteinuria onset and immune complex deposits in lupus prone mice treated with TD-PC; format: in vivo; settings: s.c., prophylactic from week 14
Excerpt: To examine the potential protective effect of TD-PC (SEQ ID NO: 25 conjugated to PC), female NZBxW/F1 lupus prone mice received subcutaneous injections (s.c) of the TD-PC conjugate, phosphorylcholine (PC), tuftsin derivative (SEQ ID NO: 25) or PBS (control) via a prophylactic protocol starting at week 14, before the clinical onset of lupus (n ¼ 15 per group).

[7] = test system: splenocytes derived from CIA mice; assay: Cytokine secretion in-vitro by splenocytes of mice with established CIA; format: in vivo; settings: splenocyte culture fluids; for mean IL-10 level: PBS 298; for mean IL-6 level: PBS 840; for mean IL-1β level: PBS 883; for mean TNF-α level: PBS 1073; for mean IL-17 level: PBS 2170
Experimental: Secretion, in-vitro, of pro-inflammatory and anti-inflammatory cytokines by splenocytes derived from CIA mice treated with TD-PC, PBS, TD, PC, TD+PC or untreated mice was evaluated (FIGS. 32A-32D). The following cytokines secretions were examined: pro-inflammatory IL-1β (FIG. 32A), IL-17 (FIG. 32B), IL-6 (FIG. 32C), TNF-α (FIG. 32D) and anti-inflammatory IL-10 (FIG. 32E).

[8] = test system: NZBxW/F1 lupus mice; assay: Survival of lupus mice treated with TD-PC (Kaplan-Meier); format: in vivo; settings: already at week 24
Experimental: A main complication of lupus nephritis is a short survival time due to severe kidney failure. Therefore, the survival time of mice treated either with TD-PC or with PC, tuftsin derivative (SEQ ID NO: 25) or PBS (control) was analyzed.

[9] = test system: CD4+CD25+FOXP3+ Tregs; assay: Treg expansion in spleen cells of lupus mice treated with TD-PC (FACS); format: in vivo; settings: gating on CD4+ T cells; PBS 4%
Excerpt: The percentage of CD4+CD25+FOXP3+ Tregs phenotype subset in spleen cells following treatment with TD-PC, tuftsin derivative (SEQ ID NO: 25), PC or PBS, is elucidated in FIGS. 25A-25B.

[10] = test system: NZBxW/F1 lupus mice; assay: Circulating anti-dsDNA antibodies in lupus mice treated with TD-PC (ELISA); format: in vivo; settings: sera at 30 weeks, dilution 1:800; between groups incl. PBS
Experimental: Titers of circulating anti-dsDNA antibodies in the sera of control and treated mice were monitored during the development of lupus, and their levels were measured every 3 weeks. […] FIG. 23 presents the anti dsDNA antibodies titers in the sera at the age 30 weeks at a dilution of 1:800.

[11] = Dagan S et al., 1987; cited from earlier work

| Molecule | enhancement in Tregs CD4+CD25+FOXP3+ expression level [1] | mean percentage of IL-10+CD25+CD1d+ Breg cells [2] | mean arthritis score [3] | average arthritis score [3] | mean percentage of CD4+CD25+FOXP3+ Treg cells [4] | IL-17 secretion from splenocytes [5] | IL-10 secretion by splenocytes [5] | TGFβ production by splenocytes [5] | reduction of splenocyte secretion of IFNγ [5] | immune complex (IC) deposits in the mesangium / nephritis class [6] | mean IL-10 level [7] | mean IL-6 level [7] | mean IL-1β level [7] | mean TNF-α level [7] | mean IL-17 level [7] | percentage of death number vs PBS injected mice [8] | CD4+CD25+FOXP3+ Tregs in spleen cells [9] | titers of circulating anti-dsDNA antibodies [10] | effect on disease progression [11] |
| --- | --- | --- | --- | --- | --- | --- | --- | --- | --- | --- | --- | --- | --- | --- | --- | --- | --- | --- | --- |
| C[N+](C)(C)CCOP(=O)(O)O [PC, phosphorylcholine] | did not cause any significant elevation | 0.44% | 14±0 | 3.4±1.1 | 0.81% | to a lower extent | did not have any effect | minimal effect | 1.5 times | did not diminish the development of strong mesangial damage | 300 pg/mL | 795 pg/mL | 860 pg/mL | 1048 pg/mL | 2179 pg/mL | significant difference | 3% | No statistically significant change | inhibitory effect |
| TKPRGY [TD] |  | 0,5% | 13.8±0.45 | 4.6±1.5 | 0.52% | Less significant inhibition | increased IL-10 secretion by splenocytes in-vitro but less significant | moderately enhanced | 2.5 times | moderate but not significant effect | 304 pg/mL | 778 pg/mL | 896 pg/mL | 1079 pg/mL | 2217 pg/mL | significant difference | 8% | No statistically significant change |  |
| threonine-lysine-proline-arginine [tuftsin] | did not cause any significant elevation |  |  |  |  |  |  |  |  |  |  |  |  |  |  |  |  |  |  |
